The values below come from article PMC9088798, “An Approach to Derive Functional Peptide Inhibitors of Transcription Factor Activity” (JACS Au, 2022).

In general, Kd refers to a measure of binding affinity in units of concentration. A lower Kd goes with tighter binding. For orientation: IC50 means the point on the concentration scale where inhibition reaches its midpoint.

For test [1], the target named is T1, cJun (Homo sapiens, UniProt P05412).
T1 construct: The human cJun bZIP domain spans from Arg252 to Leu308; His-SUMO (N, cleaved yes); AS cap (two residues Ala-Ser) (N); GAP cap (three residues Gly-Ala-Pro) (C); made in house; host or cells: E. coli (pET21-His-SUMO plasmid)
Briefly: CD dimer exchange, competition for cJun. Type of test: binding. The note with it: A-FosW added to preformed HingeW/cJun heterodimer; total peptide 10 μM. The procedure: Figure 5 TBS winner peptide HingeW binds cJun preferentially over A-FosW. CD spectra (20 °C) show the binding of cJun to either (A) HingeW or (B) A-FosW. […] However, the effect is larger for HingeW, indicating a greater increase in peptide helicity. Similarly, the thermal denaturation of cJun bound to either (C) HingeW or (D) A-FosW is right-shifted from the average of the component peptide denaturation profiles. […]
Direct competition between HingeW and A-FosW for cJun binding was observed using CD dimer exchange experiments in which a solution containing one antagonist/cJun mixture was combined with the other antagonist to observe potential changes in α-helicity, as an indicator of a change in cJun dimerization partner. In this case, when HingeW was mixed with the preformed A-FosW/cJun heterodimer, a 17% increase in helicity was observed, as measured at 222 nm, relative to the average of the component signals (Figure 5E). […]
(§1) increased to the optimum 4 µM in subsequent passages. […] This allows the occurrence of library members to be monitored as winner sequences are selected for. […]

Test [2] concerns the target T1, cJun. Kind of test: Isothermal titration calorimetry, binding to cJun. Particulars: ITC, average of two independent experiments, one SD. The procedure: Isothermal Titration Calorimetry (ITC): Peptides were studied in an ITC buffer consisting of 10 mM potassium phosphate, 150 mM potassium fluoride and 5 mM TCEP at pH 7.4. Using a MicroCal VP-ITC instrument (Malvern), 10 µL injections of antagonist peptide (HingeW or A-FosW) at 10 µM were injected into the cell containing cJun at 1 µM.
MicroCal Origin software was used to record and analyse the heat change upon addition.
Control experiments involved the injection of the antagonist peptide sample into the cell containing ITC buffer alone to determine the heat of dilution which was subtracted. The resulting binding data were fit to a one site binding model to extract the enthalpy change of binding (ΔH) and the equilibrium binding constant (K D), from which the free energy change of binding (ΔG) and the entropy change of binding (ΔS) was calculated (41).
Thermodynamic parameters are presented as an average of two independent experiments with errors given as one standard deviation. […]
Background: Isothermal titration calorimetry measures the heat released or taken up as one component is titrated into another.

A further test deals with T2, cJun/TRE DNA interaction (Homo sapiens, UniProt P05412).
T2 construct: The human cJun bZIP domain spans from Arg252 to Leu308; His-SUMO (N, cleaved yes); AS cap (two residues Ala-Ser) (N); GAP cap (three residues Gly-Ala-Pro) (C); made in house; host or cells: E. coli (pET21-His-SUMO plasmid)
Briefly: CD TRE DNA peak shift, antagonism of cJun/TRE DNA interaction. Type of test: biochemical. Particulars: cJun 20 μM, TRE DNA 5 μM, DNA peak ~281 nm, Hill equation; three independent experiments, one SD; pH 7.4. The procedure: The binding of cJun to TRE DNA can be observed by monitoring a DNA absorbance peak in the CD spectrum centered at ∼281 nm.[44] […] The addition of cJun (20 μM) to TRE DNA (5 μM) decreases this DNA peak by 55% as the cJun engages its target TRE site and alters the DNA structure (Figure 6A). Subsequent titration of HingeW into this bound cJun/TRE DNA mixture reverses the peak shift, with the peak increasing as DNA is released.
Figure 6 HingeW antagonizes cJun/TRE DNA interaction more effectively than A-FosW. (A) CD spectra showing a shift in the TRE DNA peak at ∼281 nm upon addition of cJun, which is reversed by the titration of HingeW into the sample, as HingeW sequesters the cJun in a nonfunctional heterodimer. […] EMSA showing the (C) unbound TRE DNA band shift upon addition of cJun and the subsequent restoration of the unbound DNA band intensity upon titration of either (D) HingeW or (E) A-FosW. (F). For both CD and EMSA, data was averaged from three independent experiments and the plotted error bars indicate one standard deviation. […]
µM) alongside ampicillin, kanamycin and chloramphenicol to maintain the required plasmids, and IPTG (1 mM) to induce protein expression. The library transformants were […]
as §1

T1 sequence (P05412 252-308): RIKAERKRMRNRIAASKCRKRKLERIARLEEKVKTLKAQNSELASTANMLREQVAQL
T2 sequence (P05412 252-308): as above

For “LEQRAEELARENEELEKEAEELEQELDELQAEIEQLEERNYALRKEIEDLQKQLEKL [A-FosW, N-terminal AS and C-terminal GAP caps, 6xHis-tagged]”, the “dimer exchange on mixing with preformed heterodimer” value at cJun [1] is recorded as “no dimer exchange had occurred”. The affinity at cJun [2] (10 µM antagonist peptide injected into 1 µM cJun, 10 mM potassium phosphate, 150 mM KF, 5 mM TCEP, pH 7.4, one site model), expressed as Kd, was 0.0883 ± 0.0176 µM. In addition, at cJun [2], the TΔS is given as −112.6 ± 4.1 kJ mol^–1 and the ΔH was −152.6 ± 4.1 kJ mol^–1. Further, the “N (binding stoichiometry)” value at cJun [2] (single-site binding model) is 1.04 ± 0.08. The IC50 on cJun/TRE DNA interaction is 16 ± 0.4 µM.
